Test results from ChEMBL document CHEMBL4304826, “Lead identification and characterization of hTrkA type 2 inhibitors” (Bioorg Med Chem Lett, 2019).

Tests used:
[1] = in vivo; details: Beagle, dog, plasma, iv, 0.2 mg/kg
[2] = in vivo; details: Beagle, dog, plasma, po, 3 mg/kg
[3] = in vivo; details: Beagle, dog, plasma, po, 3 mg/kg; remark: listed apart in the source
[4] = in vivo; details: Beagle, dog, plasma, po, 3 mg/kg; remark: listed apart in the source
[5] = in vitro; details: dog, MDCK
[6] = in vivo; details: Beagle, dog, plasma, po, 3 mg/kg; remark: listed apart in the source
[7] = in vitro; details: dog, MDCK; remark: listed apart in the source
[8] = in vivo; details: Beagle, dog, plasma, iv, 0.2 mg/kg; remark: listed apart in the source
[9] = in vivo; details: Beagle, dog, plasma, po, 3 mg/kg; remark: listed apart in the source
[10] = in vitro; details: dog, liver microsomes
[11] = in vivo; details: Beagle, dog, plasma, iv, 0.2 mg/kg; remark: listed apart in the source
[12] = in vivo; details: Beagle, dog, plasma, iv, 0.2 mg/kg; remark: listed apart in the source
[13] = in vivo; details: Beagle, dog, po, 3 mg/kg
[14] = in vivo; details: Beagle, dog, plasma, iv, 0.2 mg/kg; remark: listed apart in the source

## Cc1ccc2nc(CSc3nnc(NC(=O)Nc4cccc(C(F)(F)F)c4)s3)cc(=O)n2c1
[1]
  half-life: 37.8 min
[2]
  half-life: 39 min
[3]
  Cmax: 1.14 µg/mL
[4]
  Tmax: 45 min
[5]
  Papp A→B: 1.4 nm/s
[6]
  AUC(0-inf): 1.79 µg·h/mL
[7]
  Papp B→A: 37.3 nm/s
[8]
  AUC(0-t): 0.748 µg·h/mL
[9]
  AUC(0-t): 1.78 µg·h/mL
[10]
  half-life: 9 min
[11]
  Vd: 0.164 L/kg
[12]
  clearance: 0.266 L/h/kg
[13]
  bioavailability: 16%
[14]
  AUC(0-inf): 0.755 µg·h/mL
